Test results published in ChEMBL document CHEMBL1201862, “PubChem BioAssay data set” (2004).
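Briefly, cells in 96-well plates were exposed to five compound concentrations for 48 h, and endpoints were estimated by linear interpolation. GI50 is the concentration that inhibits growth by half.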 The source made the active and inactive calls. No stated cut-off is given here; in the data, active = GI50 up to about 1.1 µM and inactive = higher.

Columns and labels:
Assay in all cases: NCI-60 cell line screen, 48 h
MCF7 = tested on: MCF7
Malme-3M = tested on: Malme-3M
OVCAR-3 = tested on: OVCAR-3
A498 = tested on: A498
MOLT-4 = tested on: MOLT-4
SN12C = tested on: SN12C
NCI-H522 = tested on: NCI-H522
HCC 2998 = tested on: HCC 2998
OVCAR-4 = tested on: OVCAR-4
EKVX = tested on: EKVX
NCI-H23 = tested on: NCI-H23
SNB-19 = tested on: SNB-19
NCI/ADR-RES = tested on: NCI/ADR-RES
UACC-257 = tested on: UACC-257
CCRF-CEM = tested on: CCRF-CEM
U-251 = tested on: U-251
HOP-92 = tested on: HOP-92
LOX IMVI = tested on: LOX IMVI
HCT-116 = tested on: HCT-116
KM12 = tested on: KM12
UO-31 = tested on: UO-31
HCT-15 = tested on: HCT-15
OVCAR-5 = tested on: OVCAR-5
SK-MEL-5 = tested on: SK-MEL-5
RXF 393 = tested on: RXF 393
DU-145 = tested on: DU-145
PC-3 = tested on: PC-3
MDA-MB-435 = tested on: MDA-MB-435
MDA-N = tested on: MDA-N
K562 = tested on: K562
SK-OV-3 = tested on: SK-OV-3
NCI-H226 = tested on: NCI-H226
CAKI-1 = tested on: CAKI-1
TK-10 = tested on: TK-10
SF-539 = tested on: SF-539
SF-295 = tested on: SF-295
RPMI-8226 = tested on: RPMI-8226
SF-268 = tested on: SF-268
SK-MEL-2 = tested on: SK-MEL-2
M14 = tested on: M14
786-0 = tested on: 786-0
COLO 205 = tested on: COLO 205
SK-MEL-28 = tested on: SK-MEL-28
SW-620 = tested on: SW-620
HOP-62 = tested on: HOP-62
ACHN = tested on: ACHN
NCI-H460 = tested on: NCI-H460
A549 = tested on: A549
MDA-MB-231 = tested on: MDA-MB-231
UACC-62 = tested on: UACC-62

Measured: GI50

CN(C)CC1CN=C(N)O1 (stereo not given)
> 100 µM: HCT-15
inactive: MCF7 > 100 µM | Malme-3M > 100 µM | OVCAR-3 > 100 µM | A498 > 100 µM | MOLT-4 > 100 µM | SN12C > 100 µM | NCI-H522 > 100 µM | HCC 2998 > 100 µM | OVCAR-4 > 100 µM | EKVX > 100 µM | NCI-H23 > 100 µM | SNB-19 > 100 µM | NCI/ADR-RES > 100 µM | UACC-257 > 100 µM | CCRF-CEM > 100 µM | U-251 > 100 µM | HOP-92 > 100 µM | LOX IMVI > 100 µM | HCT-116 > 100 µM | KM12 > 100 µM | UO-31 > 100 µM | OVCAR-5 > 100 µM | SK-MEL-5 > 100 µM | RXF 393 > 100 µM | DU-145 > 100 µM | PC-3 > 100 µM | MDA-MB-435 > 100 µM | MDA-N > 100 µM | K562 > 100 µM | SK-OV-3 > 100 µM | NCI-H226 > 100 µM | CAKI-1 > 100 µM | TK-10 > 100 µM | SF-539 > 100 µM | SF-295 > 100 µM | RPMI-8226 > 100 µM | SF-268 > 100 µM | SK-MEL-2 > 100 µM | M14 > 100 µM | 786-0 > 100 µM | COLO 205 > 100 µM | SK-MEL-28 > 100 µM | SW-620 > 100 µM | HOP-62 > 100 µM | ACHN > 100 µM | NCI-H460 > 100 µM | A549 > 100 µM | MDA-MB-231 > 100 µM | UACC-62 > 100 µM
